Assay results published in article PMC8496750, “Identification of the organic anion transporting polypeptides responsible for the hepatic uptake of the major metabolite of epyrifenacil, S‐3100‐CA, in mice” (Pharmacology Research & Perspectives, 2021).

Legend:
mouse Oatp1a1 = target: T1, mouse Oatp1a1 (Mus musculus, UniProt Q9QXZ6); assay: Uptake assay for radiolabeled substrates, mouse Oatp1a1 expressing 293FT cells; format: in vitro ADME; parameters: expressed in transfected cells; host or cells: 293FT cells; conditions: for Ratio of uptake amount relative to the uptake into mock cells: 10‐min incubation
T1 sequence (Q9QXZ6 1-670): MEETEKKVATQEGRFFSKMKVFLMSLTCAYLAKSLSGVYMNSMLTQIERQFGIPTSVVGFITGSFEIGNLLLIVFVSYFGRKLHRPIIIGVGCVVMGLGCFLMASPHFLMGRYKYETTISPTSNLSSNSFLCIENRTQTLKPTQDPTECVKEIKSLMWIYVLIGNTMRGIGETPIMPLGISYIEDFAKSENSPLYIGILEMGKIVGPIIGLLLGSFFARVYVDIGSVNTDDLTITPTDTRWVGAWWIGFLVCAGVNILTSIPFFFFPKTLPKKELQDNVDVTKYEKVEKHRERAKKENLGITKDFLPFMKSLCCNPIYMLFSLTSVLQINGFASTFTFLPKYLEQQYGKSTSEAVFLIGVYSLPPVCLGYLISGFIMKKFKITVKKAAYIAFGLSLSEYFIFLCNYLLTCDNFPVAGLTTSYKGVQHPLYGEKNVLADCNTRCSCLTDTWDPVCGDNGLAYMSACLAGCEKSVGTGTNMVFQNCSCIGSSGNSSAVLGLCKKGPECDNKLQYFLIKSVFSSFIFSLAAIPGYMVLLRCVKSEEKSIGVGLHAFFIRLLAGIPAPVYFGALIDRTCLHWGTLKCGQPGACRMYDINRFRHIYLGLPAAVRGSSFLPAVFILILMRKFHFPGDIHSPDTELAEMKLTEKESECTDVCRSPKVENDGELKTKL
Method: (§1) 293FT cells were purchased from Thermo Fisher Scientific, Inc.. The cells were grown in Dulbecco's modified Eagle medium (supplemented with 4.5 g/L glucose and 2 mM L‐glutamine) at 37°C, 5% CO2, and 95% humidity. The cells were passaged 3 times per week by harvesting cells using trypsin and plating at a density of 1.0 × 10^4 cells/cm^2 in a 10 cm cell culture plate for maintenance culture. The 293FT cells were detached using trypsin and re‐seeded at a density of 2.5 × 10^4 cells/cm^2 in BioCoat™ Collagen I 6‐well plates (Corning Inc.) for transfection and then treated with 1.2 μg of plasmid vector and 3.2 μl of Lipofectamine™ 2000 Transfection Reagent (Thermo Fisher Scientific, Inc.) according to the manufacturer's instructions. After a 3‐h treatment, the transfection medium was replaced with a fresh cell culture medium and incubated at 37°C with 95% humidity and 5% CO2 until ready for the assay.
(§2) Transport experiments were conducted approximately 24 h post‐transfection. The experiments were initiated by aspirating culture medium and addition of pre‐warmed radiolabeled substrate solution (final 1.0% of acetonitrile or 0.9% of ethanol in phosphate‐buffered saline (PBS[−])) to each well. After a 10‐min incubation, cells were washed twice with 1 ml of ice‐cold PBS(−) and lysed with 700 μl of 1.0 M NaOH for 3 h or more at room temperature. The lysate was transferred to a 1.5‐ml tube, and neutralized with 350 μl of 2.0 M HCl and 350 μl of 2.0% sodium dodecyl sulfate (SDS) solution. From the lysate, 1.0 ml was transferred to a vial containing 10 ml of Emulsifier Scintillator Plus to measure the radioactivity in the LSC. The protein concentration of the cell lysate was also measured using a Pierce™ BCA Protein Assay Kit (Thermo Fisher Scientific, Inc.), which was used to normalize, according to the cell number, the radioactivity in the cell lysate extract. The protein assay was performed in duplicate. Each sample type was assayed in triplicate wells, and each run was performed twice. When the difference in mean uptake between OATP expressing cells and mock cells was more than 2 times, the OATP was judged to be involved in transportation of the substrate. […] Each sample type was assayed in triplicate wells.

rat Oatp1b2 = target: T2, rat Oatp1b2 (Rattus norvegicus, UniProt Q9QZX8); assay: Uptake assay for radiolabeled substrates, rat Oatp1b2 expressing 293FT cells; conditions: 10‐min incubation
T2 sequence (Q9QZX8 1-687): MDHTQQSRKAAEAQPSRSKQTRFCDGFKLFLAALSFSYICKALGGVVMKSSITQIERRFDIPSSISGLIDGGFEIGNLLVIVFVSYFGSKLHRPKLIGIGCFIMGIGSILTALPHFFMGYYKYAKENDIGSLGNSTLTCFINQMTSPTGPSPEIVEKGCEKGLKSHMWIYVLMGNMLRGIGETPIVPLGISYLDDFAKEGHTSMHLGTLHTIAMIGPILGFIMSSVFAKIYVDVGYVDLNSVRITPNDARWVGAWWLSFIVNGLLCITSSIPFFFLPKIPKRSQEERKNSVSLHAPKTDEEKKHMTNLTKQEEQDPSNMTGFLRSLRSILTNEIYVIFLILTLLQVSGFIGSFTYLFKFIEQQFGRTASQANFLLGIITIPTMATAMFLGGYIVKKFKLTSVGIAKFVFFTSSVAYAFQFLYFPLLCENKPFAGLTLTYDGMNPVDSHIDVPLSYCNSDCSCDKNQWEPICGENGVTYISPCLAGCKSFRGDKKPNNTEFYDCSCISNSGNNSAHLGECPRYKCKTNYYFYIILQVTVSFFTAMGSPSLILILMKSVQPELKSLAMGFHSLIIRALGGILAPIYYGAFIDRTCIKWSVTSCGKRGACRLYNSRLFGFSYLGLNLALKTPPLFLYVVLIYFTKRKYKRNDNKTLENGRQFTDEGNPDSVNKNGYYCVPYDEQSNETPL
Method: as §1, §2

rat Oatp1a4 = target: T3, rat Oatp1a4 (Rattus norvegicus, UniProt O35913); assay: Uptake assay for radiolabeled substrates, rat Oatp1a4 expressing 293FT cells; conditions: 10‐min incubation
T3 sequence (O35913 1-661): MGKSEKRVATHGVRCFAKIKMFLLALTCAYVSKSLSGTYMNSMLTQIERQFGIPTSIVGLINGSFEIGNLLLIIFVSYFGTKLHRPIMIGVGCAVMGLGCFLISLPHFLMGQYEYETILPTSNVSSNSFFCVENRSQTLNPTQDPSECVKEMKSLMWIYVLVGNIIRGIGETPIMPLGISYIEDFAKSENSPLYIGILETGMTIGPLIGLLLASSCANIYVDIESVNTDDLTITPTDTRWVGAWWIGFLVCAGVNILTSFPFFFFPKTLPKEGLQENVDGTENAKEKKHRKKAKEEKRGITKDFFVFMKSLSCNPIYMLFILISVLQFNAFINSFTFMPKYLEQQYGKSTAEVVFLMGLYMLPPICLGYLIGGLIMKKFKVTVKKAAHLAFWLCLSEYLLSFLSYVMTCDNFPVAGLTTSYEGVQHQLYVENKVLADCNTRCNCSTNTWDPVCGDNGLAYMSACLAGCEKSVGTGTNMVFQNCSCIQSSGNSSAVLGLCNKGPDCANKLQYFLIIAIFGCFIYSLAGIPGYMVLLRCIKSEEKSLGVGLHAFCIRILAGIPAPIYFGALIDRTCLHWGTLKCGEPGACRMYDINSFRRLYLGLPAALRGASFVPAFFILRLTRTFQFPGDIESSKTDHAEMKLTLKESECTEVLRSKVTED
Method: as §1, §2

Row | SMILES | Ratio of uptake amount relative to the uptake into mock cells (mouse Oatp1a1; Run_1) | Ratio of uptake amount relative to the uptake into mock cells (mouse Oatp1a1; Run_2) | Ratio of uptake amount relative to the uptake into mock cells (rat Oatp1b2; Run_1) | Ratio of uptake amount relative to the uptake into mock cells (rat Oatp1b2; Run_2) | Ratio of uptake amount relative to the uptake into mock cells (rat Oatp1a4; Run_1) | Ratio of uptake amount relative to the uptake into mock cells (rat Oatp1a4; Run_2) | Uptake, times higher than in mock cells (mouse Oatp1a1) [times]
1 | C[C@]12CC[C@@H]3c4ccc(OS(=O)(=O)O)cc4CC[C@H]3[C@@H]1CCC2=O [E3S, Estrone 3‐sulfate] | 23.4 | 34.4 | 10.0 | 4.7 | 2.2 | 1.4 | 
2 | C[C@]12CC[C@@H]3c4ccc(O)cc4CC[C@H]3[C@@H]1CC[C@@H]2O[C@@H]1O[C@H](C(=O)O)[C@@H](O)[C@H](O)[C@H]1O [E217βG, Estradiol 17β‐D‐glucuronide] | 84.9 | 62.2 | 27.4 | 43.2 | 6.1 | 10.4 | > 50
3 | Cn1c(C(F)(F)F)cc(=O)n(-c2cc(Oc3cccnc3OCC(=O)O)c(Cl)cc2F)c1=O [S‐3100‐CA] | 3.3 | 4.3 | 6.6 | 8.4 | 5.0 | 4.1 | 
